Data as given in patent US8401609B2, “System, method and applications involving identification of biological circuits such as neurological characteristics” (The Board of Trustees of the Leland Stanford Junior …, priority 2007, dated 2013).
Entries after “also recorded” stand apart in the source; their conditions may differ. Like-named read-outs stand apart in the source and are kept apart here.

Legend:
[1] = test system: acute horizontal slices prepared from the ventral hippocampus; assay: Pharmacological dissection of the VSDI signal in acute hippocampal slices; assay type: cell-based, rats
Experimental: GABAzine (20 μM) and TTX (1 μM) were applied subsequently to confirm signal extinction.
VSDI with a digital camera system optimized for high speed, sensitivity, and resolution was used to observe the activity of intact networks within acute horizontal slices prepared from the ventral hippocampus of adult, female rats (FIG. 1A). Slices were bath loaded with the fast-response voltage-sensitive dye di-4-ANEPPS. After loading, slices were stimulated with standardized electrical pulse trains and activity was recorded with a 5 ms frame rate and 25 um spatial resolution. […] To extract reliable quantitative features of the network response from the high-speed VSDI data, cross-correlation analysis was employed to take advantage of the fact that the evoked responses occur with a uniform fast time course and delay following stimulation and that reverberatory oscillations or changes in response phase were never observed under these conditions (FIGS. 1C, 1D, 10 and 11). […] The area of this region of interest and the mean amplitude of pixels in the region were then computed, and local network response (“total activity”) was calculated as the mean signal amplitude multiplied by the area of the region of interest. This measure was linear with the applied stimulus current, making it a quantitative and reliable indicator of network activity across animals (FIG. 2B).

[2] = test system: adult, female rats
[3] = test system: dentate gyrus (DG); assay: VSDI of evoked DG activity in acute hippocampal slices from treated animals; assay type: in vivo, rats; conditions: for evoked DG activity: 2-week dosing
Experimental: (§1) VSDI with a digital camera system optimized for high speed, sensitivity, and resolution was used to observe the activity of intact networks within acute horizontal slices prepared from the ventral hippocampus of adult, female rats (FIG. 1A). Slices were bath loaded with the fast-response voltage-sensitive dye di-4-ANEPPS. After loading, slices were stimulated with standardized electrical pulse trains and activity was recorded with a 5 ms frame rate and 25 um spatial resolution. […] To extract reliable quantitative features of the network response from the high-speed VSDI data, cross-correlation analysis was employed to take advantage of the fact that the evoked responses occur with a uniform fast time course and delay following stimulation and that reverberatory oscillations or changes in response phase were never observed under these conditions (FIGS. 1C, 1D, 10 and 11). This cross-correlation analysis generated two plots, one corresponding to the maximal response amplitude of each pixel (FIG. 1D, top right, FIG. 11B, right), and the other corresponding to the time at which this maximal amplitude occurred (“phase,” FIG. 1D, top left, FIG. 11B, left). Phase values were consistent in the regions responding to stimulation, which were isolated computationally for further analysis (FIG. 1D, bottom, FIG. 12). The area of this region of interest and the mean amplitude of pixels in the region were then computed, and local network response (“total activity”) was calculated as the mean signal amplitude multiplied by the area of the region of interest. This measure was linear with the applied stimulus current, making it a quantitative and reliable indicator of network activity across animals (FIG. 2B).
(§2) To determine the network activity changes associated with these induced depression-related behavioral phenotypes, acute hippocampal slices were generated from the same animals for high-speed VSDI. Both the DG and CA1 networks were specifically probed for the reasons described above, anticipating that there would likely be different effects in each local network that might nonetheless each be linked to the behavioral phenotype. […] In these and all experiments, the experimenters were always blinded to treatment groups. […] The activity of the DG relative to that of CA1 has consistently provided a reliable predictor of depression-related behavioral phenotypes (FIG. 2E) that was robust to experimental variation and allowed for quantitative comparisons between individual animals.
The following algorithms provide an example implementation for use in analyzing the VSDI data collected according to the methods and systems described herein. To begin the analysis, the raw VSDI data were imported into a software application, such as MATLAB (Mathworks, Natick, Mass.). The data was represented as an initial reference frame (F), followed by each imaging data frame, which contained differential fluorescence values (ΔF). For each pixel and frame, the ΔF/F value was calculated. Each temporal frame was then spatially smoothed using a 3×3 pixel digital Gaussian kernel (σ=1):
(§3) After extracting the region of interest, the mean correlation amplitude of pixels within this region and the total area of the region of interest (as a percentage of frame size) were then calculated. The mean amplitude multiplied by this area (“total activity”) was the final statistic used to measure system response for the voltage sensitive dye imaging data. Even though voltage changes due to glia can be observed with voltage sensitive dyes, the total activity measures reported here likely indicate only neuronal responses to stimulation, as opposed to the slower responses of hippocampal glia that are not appreciably sensitive to AMPA and NMDA block especially given the short latency to peak of the VSDI traces (6.3+/−0.6 ms for 2 Hz stimulations), the lack of summation of responses following 2 Hz stimulation, and the reliance of the signal on AMPA and NMDA transmission (FIG. 1B).

[4] = test system: activity of the DG relative to CA1; assay: VSDI DG-CA1 relative activity, per slice, averaged per animal; assay type: in vivo, rats; conditions: for DG-CA1 relative activity: NNS protocol
From the text: as §2, §3

[5] = test system: CA1; assay: VSDI of evoked CA1 activity in acute hippocampal slices from treated animals; assay type: in vivo, rats; conditions: for evoked CA1 activity: 2-week dosing, normalized by control mean; for CA1 VSDI response: NNS protocol
Experimental: as §1
To determine the network activity changes associated with these induced depression-related behavioral phenotypes, acute hippocampal slices were generated from the same animals for high-speed VSDI. […] The activity of the DG relative to that of CA1 has consistently provided a reliable predictor of depression-related behavioral phenotypes (FIG. 2E) that was robust to experimental variation and allowed for quantitative comparisons between individual animals.
The following algorithms provide an example implementation for use in analyzing the VSDI data collected according to the methods and systems described herein. […] The data was represented as an initial reference frame (F), followed by each imaging data frame, which contained differential fluorescence values (ΔF). For each pixel and frame, the ΔF/F value was calculated. […]
After extracting the region of interest, the mean correlation amplitude of pixels within this region and the total area of the region of interest (as a percentage of frame size) were then calculated. […]

[6] = test system: BrdU+ cells in the hippocampus; assay: Unbiased stereology and phenotyping of BrdU+ cells (hippocampal neurogenesis); assay type: in vivo, rats; design: newborn (BrdU+) cell density: scale not given here
Experimental: BrdU (50 mg/kg/day) was administered daily during the second week of fluoxetine or vehicle.
BrdU (50 mg/kg/day) was administered concurrently with fluoxetine or vehicle.
Next changes in neurogenesis associated with these bidirectional changes in behavior and network activity were probed for, to determine if the network dynamics metric depends chiefly on a single biological mechanism or instead retains its validity across fundamentally different mechanisms that may underlie CMS and antidepressant responses. Neurogenesis appears to be strongly linked to antidepressant effects on the novelty-suppressed feeding task, but has not been clearly implicated in depression-related behavioral measures like the FST or in depression induction involving chronic mild stress. […] To directly investigate whether the network and behavioral effects of both CMS and antidepressant treatment could depend in part on a common underlying neurogenesis mechanism, bromodeoxyuridine (BrdU) was administered to label dividing cells during the last week of treatment in the experiment described in connection with FIG. 3, and blinded immunohistological counts from the hippocampus contralateral to that used for VSDI were conducted with unbiased stereology procedures, to determine the total number of newborn cells (FIG. 4A, 4C). For this analysis the hippocampal formation was divided into two components, dorsal and ventral. The ventral hippocampus is thought to be more involved in mood regulation. Thus, the acute slice VSDI experiments were conducted in ventral hippocampus.
(§4) To quantify effects of the NNS antidepressant treatment on the number of newborn cells and to confirm the selective reduction of hippocampal neurogenesis by irradiation, BrdU was injected during the week of drug treatment and conducted stereological counts as described above. […] Additionally, to assess the neurogenic environment at the time of physiological analysis, the immature neuronal marker doublecortin (Dcx) was employed.

[7] = test system: Dcx+ cells; assay: Doublecortin (Dcx) staining of immature neurons; assay type: in vivo, rats; conditions: NNS protocol, at time of physiological analysis
Experimental: as §4

[8] = 2-week dosing, 48-hour delay, mean percent time
[9] = CMS five weeks or control, fluoxetine during final two weeks
[10] = NNS protocol, normalized by control mean

NC(CCCP(=O)(O)O)C(=O)O [D-AP5]
VSDI signal ([1]; concurrent D-AP5 application 25 μM with NBQX): abolished; also recorded: extinguished the signal

O=C(CCCN1CCC(O)(c2ccc(Cl)cc2)CC1)c1ccc(F)cc1 [haloperidol]
FST climbing [2, 8]: No such effects were observed
FST swimming [2, 8]: No such effects were observed
evoked DG activity ([3]; normalized by control mean): increased in antidepressant, but not haloperidol; also recorded: no effect
relative activity between DG and CA1 ([4]; 2-week dosing): absent

CN(C)CCCN1c2ccccc2CCc2ccccc21 [imipramine]
evoked DG activity ([3]; normalized by control mean): increased activity in DG
evoked CA1 activity [5]: reduced activity in CA1

CNCCC(Oc1ccc(C(F)(F)F)cc1)c1ccccc1 (stereo not drawn) [fluoxetine]
FST swimming [2, 8]: associated increases
FST mobility behaviors (swimming and climbing) [2, 9]: associated increases in mobility behaviors
FST immobility ([2]; CMS five weeks or control, fluoxetine during final two weeks, 48 hour delay): decreased immobility in both control and CMS groups; also recorded: reversing the behavioral effects of CMS
FST swimming ([2]; NNS protocol, sham irradiation): increases in swimming
total number of newborn neurons (BrdU+/NeuN+) in the DG ([6]; NNS protocol): specifically increased the total number of newborn neurons; also recorded: selective increase in neurogenesis
BrdU+ cell density, effect in words ([6]; dorsal hippocampus): no such effects were observed
newborn (BrdU+) cell density ([6]; dorsal hippocampus, CMS+fluoxetine): 3.41 cells/mm^3
newborn (BrdU+) cell density ([6]; dorsal hippocampus, fluoxetine without CMS): 3.03 cells/mm^3
newborn (BrdU+) cell density ([6]; ventral hippocampus, CMS+fluoxetine): 2.38 cells/mm^3
BrdU+ neuron density (NeuN, Dcx phenotyping) ([6]; ventral hippocampus, CMS/fluoxetine experiment): increased number of new neurons; also recorded: specifically increased
newborn (BrdU+) cell density ([6]; ventral hippocampus, fluoxetine without CMS): 2.47 cells/mm^3
BrdU+ cell density, effect in words ([6]; ventral hippocampus, in the presence and absence of CMS): increased number of new cells; also recorded: robustly increased
total BrdU+ cells per hippocampus ([6]; weeklong fluoxetine 20 mg/kg/day, BrdU concurrently): increased numbers of new cells; also recorded: increased the BrdUi cell density
evoked DG activity ([3]; normalized by control mean): increased activity in DG
DG VSDI response ([3]; NNS protocol, irradiated animals): no fluoxetine-induced differences
DG active network area [3, 10]: modulated similarly to the total activity measure
DG mean signal amplitude [3, 10]: not modulated
DG VSDI response ([3]; NNS protocol, sham irradiation): significantly increased response; also recorded: neurogenesis dependent increase of DG activity; also recorded: increased DG activity
activity of DG relative to CA1 [4, 9]: significantly increased this statistic in both CMS and control groups
DG-CA1 relative activity ([4]; irradiated animals): not following irradiation; also recorded: relied similarly on hippocampal neurogenesis
DG-CA1 relative activity ([4]; sham irradiation): significant increases; also recorded: increased the activity of DG relative to that of CA1
evoked CA1 activity [5]: reduced activity in CA1
CA1 VSDI response [5]: significantly decreased response; also recorded: decreased CA1 activity
CA1 VSDI response ([5]; irradiated animals): unaffected by irradiation
doublecortin (Dcx) staining, number of Dcx+ cells [7]: unaffected; also recorded: did not affect the number of Dcx+ cells

NS(=O)(=O)c1cccc2c1c([N+](=O)[O-])cc1nc(O)c(O)nc12 [NBQX]
VSDI signal ([1]; NBQX application 10 μM, evoked by electrical stimulation): greatly reduced; also recorded: nearly abolished the signal
